Reference: US20100331269A1, “TRITERPENES DERIVATIVES AND USES THEREOF AS ANTITUMOR AGENTS OR ANTI-INFLAMMATORY AGENTS” (priority 2006, published 2010)

Assays:
[1] = tested on: Hep G2 human hepatocellular carcinoma cells; assay: Cytotoxicity, resazurin metabolism assay, Hep G2; format: cell-based; conditions: mean ± SD
Source text: (§1) Human lung carcinoma (A-549), human colon adenocarcinoma (DLD-1), human normal fibroblasts (WS1), mice melanoma (B16-F1), Human glioma (U-251), Human hepatocellular carcinoma (HEP G2), Human prostate adenocarcinoma (PC-3), Human ovary teratocarcinoma metastatic (PA-1), Human breast adenocarcinona metastatic (MDA-MB-231), Human breast adenocarcinoma (MCF-7) and Human malignant melanoma (SK-MEL-2) cell lines were obtained from the American Type Culture Collection (ATCC). All cell lines were cultured in minimum essential medium containing Earle's salts and L-glutamine (Mediatech Cellgro, Va.), to which was added 10% fetal bovine serum (Hyclone), vitamins (1×), penicillin (100 I.U./mL) and streptomycin (100 μg/mL), essential amino acids (1×) and sodium pyruvate (1×) (Mediatech Cellgro, Va.). Cells were kept at 37° C. in a humidified environment containing 5% CO2.
(§2) Exponentially growing cells were plated in 96-well microplates (Costar, Corning Inc.) at a density of 5×10^3 cells per well in 100 μL of culture medium and were allowed to adhere for 16 hours before treatment. Increasing concentrations of each compound in DMSO (Sigma-Aldrich) were then added (100 μL per well) and the cells were incubated for 48 h. […] Cytotoxicity was assessed using resazurin (O'Brien, J. et al., Eur. J. Biochem. 2000, 267, 5421-5426) on an automated 96-well Fluoroskan Ascent F1™ plate reader (Labsystems) using excitation and emission wavelengths of 530 nm and 590 nm, respectively. Fluorescence was proportional to the cellular metabolic activity in each well. Survival percentage was defined as the fluorescence in experimental wells compared to that in control wells after subtraction of blank values. Each experiment was carried out three times in triplicata. IC50 results were expressed as mean±standard deviation.
(§3) Compounds presented in Table 5 below were also tested in the following tumour cell lines: U-251 (Human glioma), HEP G2 (Human hepatocellular carcinoma), PC-3 (Human prostate adenocarcinoma), PA-1 (Human ovary teratocarcinoma metastatic), MDA-MB-231 (Human breast adenocarcinona metastatic), MCF-7 (Human breast adenocarcinoma) and SK-MEL-2 (Human malignant melanoma).

[2] = tested on: A-549 human lung carcinoma cells; assay: Cytotoxicity, resazurin metabolism assay, A-549; format: cell-based; conditions: 48 h, mean ± SD
In short: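 Cells plated at 5×10^3/well, adhered 16 h, then exposed to increasing compound concentrations (DMSO) for 48 h. Viability by resazurin reduction, fluorescence ex 530/em 590 nm, blank-subtracted versus control wells; IC50 as mean±SD from three experiments in triplicate.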

[3] = Determination of the maximum tolerated dose (MTD) after a single IP injection; format: in vivo, mice; conditions: for CSS Closed eyes / CSS Diarrhea / CSS Lethargy / CSS Rough coat / CSS Total / Number of deaths: 5 mice
Protocol: Groups of five mice (Charles River) received a single IP injection of 3-O-α-L-rhamnopyranoside betulinic acid (22) in DMSO at doses of 50, 100, 250 and 500 mg/kg of body weight. […] A group of five control mice received the vehicle (DMSO). […] For each animal, a score was calculated based on the absence (value 0) or presence (value 1) of diarrhoea, lethargy, rough coat and closed eyes. A clinical state score (CSS) was then calculated per group by summing individual scores. All the mice were weighed daily during 3 days following the injection. The maximal weight loss was determined 24 hours and 3 days following the injection. The MTD was defined as the highest single dose that met all the following criteria: 1) zero death per group; 2) maximal weight loss 20% in non-tumour bearing animals; and 3) CSS value lower than 15.

U-251 human glioma cells = assay: Cytotoxicity, resazurin metabolism assay, U-251; format: cell-based; conditions: mean ± SD
Source text: as §1, §2, §3

WS-1 cells = assay: Cytotoxicity, Hoechst DNA assay, WS-1; format: cell-based, human; conditions: ± SD
In short: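 Cells grown at 37 °C, 5% CO2, in MEM with 10% FBS. Compound cytotoxicity was measured by Hoechst DNA staining. Activity is expressed as IC50, the concentration inhibiting 50% of cell growth.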

[4] = tested on: MDA-MB-231 human breast adenocarcinoma cells; assay: Cytotoxicity, resazurin metabolism assay, MDA-MB-231; format: cell-based; conditions: mean ± SD
Source text: as §1, §2, §3

C=C(C)[C@@H]1CC[C@]2(C(=O)O)CC[C@]3(C)[C@H](CC[C@@H]4[C@@]5(C)CC[C@H](O[C@@H]6O[C@@H](C)[C@H](O)[C@@H](O)[C@H]6O)C(C)(C)[C@@H]5CC[C@]43C)[C@@H]12 [Compound 22, 3-O-α-L-Rhamnopyranoside of betulinic acid]
IC50 [1]: 20 ± 2 µM
IC50 [2]: 2.6 ± 0.6 µM
Max. weight loss after 24 hours ([3]; 50 mg/kg single IP): 11%
Max. weight loss after 3 days ([3]; 50 mg/kg single IP): 0%
CSS Closed eyes ([3]; 50 mg/kg single IP): 0
CSS Diarrhea ([3]; 50 mg/kg single IP): 0
CSS Lethargy ([3]; 50 mg/kg single IP): 0
CSS Rough coat ([3]; 50 mg/kg single IP): 0
CSS Total ([3]; 50 mg/kg single IP): 0
Number of deaths ([3]; 50 mg/kg single IP): 0
Max. weight loss after 24 hours ([3]; 100 mg/kg single IP): 14%
Max. weight loss after 3 days ([3]; 100 mg/kg single IP): 0%
CSS Closed eyes ([3]; 100 mg/kg single IP): 0
CSS Diarrhea ([3]; 100 mg/kg single IP): 0
CSS Lethargy ([3]; 100 mg/kg single IP): 0
CSS Rough coat ([3]; 100 mg/kg single IP): 0
CSS Total ([3]; 100 mg/kg single IP): 0
Number of deaths ([3]; 100 mg/kg single IP): 0
Max. weight loss after 24 hours ([3]; 250 mg/kg single IP): 9%
Max. weight loss after 3 days ([3]; 250 mg/kg single IP): 0%
CSS Closed eyes ([3]; 250 mg/kg single IP): 5
CSS Diarrhea ([3]; 250 mg/kg single IP): 0
CSS Lethargy ([3]; 250 mg/kg single IP): 0
CSS Rough coat ([3]; 250 mg/kg single IP): 5
CSS Total ([3]; 250 mg/kg single IP): 10
Number of deaths ([3]; 250 mg/kg single IP): 0
Max. weight loss after 24 hours ([3]; 500 mg/kg single IP): 11%
Max. weight loss after 3 days ([3]; 500 mg/kg single IP): 0%
Rough coat and closed eyes observed, share of the mice ([3]; 500 mg/kg single IP): 100%
CSS Closed eyes ([3]; 500 mg/kg single IP): 5
CSS Diarrhea ([3]; 500 mg/kg single IP): 5
CSS Lethargy ([3]; 500 mg/kg single IP): 2
CSS Rough coat ([3]; 500 mg/kg single IP): 5
CSS Total ([3]; 500 mg/kg single IP): 17
Number of deaths ([3]; 500 mg/kg single IP): 0
Calculated dose for an average human weighting 60 kg ([3]; 60 kg human): 139.8 mg
Body weight loss after 24 h ([3]; all tested doses (50-500 mg/kg), single IP): 9-14%
Mortality ([3]; all tested doses, single IP): no mortality
Weight loss after 3 days (returned to initial weight) ([3]; all tested doses, single IP): 0%
Calculated MTD (human, after security factor of 10) ([3]; human equivalent dose divided by 10): 2.33 mg/kg
MTD (maximum tolerated dose) ([3]; mice, single IP injection in DMSO): 250 mg/kg
MTD equivalent in human (human equivalent dose) ([3]; mouse MTD 250 mg/kg divided by conversion factor 12.3): 20.33 mg/kg
IC50 (U-251 human glioma cells): 20 ± 2 µM
IC50 (WS-1 cells): 38 ± 6 µM
IC50 [4]: 19 ± 2 µM
